Source: BindingDB's records for doi:10.1021/jm049715t (Uppsala University, 2004)

Target: Type-2 angiotensin II receptor (Sus scrofa)
Assay: Displacement of [125I]-Ang II from pig uterus membrane angiotensin II type 2 (AT2) receptor

SMILES | Ki [nM]
CCCCOC(=O)NS(=O)(=O)c1sc(CC(C)C)cc1-c1ccc(CC#N)cc1 [butyl (5-isobutylthien-2-yl)sulfonylcarbamate derivative] | 70
CCCCOC(=O)NS(=O)(=O)c1sc(CC(C)C)cc1-c1ccc(Cn2c(CC)nc3ccccc32)cc1 [butyl (5-isobutylthien-2-yl)sulfonylcarbamate derivative] | 3.2
CCCCOC(=O)NS(=O)(=O)c1sc(CC(C)C)cc1-c1ccc(Cn2ccnc2C)cc1 [butyl (5-isobutylthien-2-yl)sulfonylcarbamate derivative] | 0.5
CCCCOC(=O)NS(=O)(=O)c1sc(CC(C)C)cc1-c1ccc(Cn2cnc3ccccc32)cc1 [butyl (5-isobutylthien-2-yl)sulfonylcarbamate derivative] | 4
CCCCOC(=O)NS(=O)(=O)c1sc(CC(C)C)cc1-c1ccc(Cn2cnc3cccnc32)cc1 [butyl (5-isobutylthien-2-yl)sulfonylcarbamate derivative] | 7.1
